Laboratory results published in PubChem BioAssay (NCI).
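Five compound concentrations were applied to cells in 96-well plates for 48 hours; endpoints were derived by simple linear interpolation of the resulting dose-response curve. GI50: concentration for 50% inhibition of growth. Definition used: TGI = concentration required for complete inhibition of growth.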

Experiments:
Experiment in all cases: NCI anticancer screen, dose series, 48 h
HCC-2998 colon = test system: HCC-2998 colon
HCT-116 colon = test system: HCT-116 colon
HCT-15 colon = test system: HCT-15 colon
HOP-62 NSCLC = test system: HOP-62 NSCLC
HOP-92 NSCLC = test system: HOP-92 NSCLC
K-562 leukemia = test system: K-562 leukemia
MALME-3M melanoma = test system: MALME-3M melanoma
SK-MEL-2 melanoma = test system: SK-MEL-2 melanoma
SK-MEL-5 melanoma = test system: SK-MEL-5 melanoma
SN12C renal = test system: SN12C renal
SNB-75 CNS = test system: SNB-75 CNS

SMILES	TGI (HCC-2998 colon) [µM]	TGI (HCT-116 colon) [µM]	TGI (HCT-15 colon) [µM]	TGI (HOP-62 NSCLC) [µM]	TGI (HOP-92 NSCLC) [µM]	TGI (K-562 leukemia) [µM]	TGI (MALME-3M melanoma) [µM]	TGI (SK-MEL-2 melanoma) [µM]	TGI (SK-MEL-5 melanoma) [µM]	TGI (SN12C renal) [µM]	TGI (SNB-75 CNS) [µM]	GI50 (HCC-2998 colon) [µM]	GI50 (HCT-15 colon) [µM]	GI50 (HOP-62 NSCLC) [µM]	GI50 (HOP-92 NSCLC) [µM]	GI50 (K-562 leukemia) [µM]	GI50 (MALME-3M melanoma) [µM]	GI50 (SK-MEL-5 melanoma) [µM]	GI50 (SN12C renal) [µM]	GI50 (SNB-75 CNS) [µM]
CN(C)CCNC(=O)c1cccc2c(=O)c3ccccc3oc12	> 100	> 100	> 100	97.5	60.1	> 100	64.3	98.9	60.5	> 78.7	> 87.3									
CC(=O)C(C(c1ccccc1)N1CCOCC1)N1CCOCC1 (stereo unspecified)	35.8	> 100	> 100	> 100	> 100	> 100	> 100	> 100	> 100	> 100	> 100									
CC1(C)[C@@H]2CC[C@]1(C)[C@H](OC(=O)CSC#N)C2	> 100	> 100	> 100	> 100	> 100		> 100	> 100	> 100	> 100	> 100									
COC1OC(CS(=O)(=O)O)C(O)C(O)C1O (stereo unspecified)	> 100	> 100	> 100	> 100	> 100	> 100	> 100	> 100	> 100	> 100	> 100									
CC1=C2C(O)C(C(C)C(=O)N(C)C)CCC2(C)C=CC1=O (stereo unspecified)	> 100	> 100	> 100	> 100	> 100	> 100		> 100	> 100	> 100	> 100									
CCC1C[N+]23CCc4c([nH]c5ccccc45)C2CC1CC3 (stereo unspecified)	> 100	> 100	> 100	> 100	> 100	> 100	97.4	> 100	48.9	> 100	> 100									
CCCC(C)c1ccc(OCCCCCCN2CCNCC2)cc1 (stereo unspecified)	3.28		3.77	24.1	6.7	3.97	3.75		3.1	9.66	3.06	1.84	1.88	4.55	1.54	1.51	1.93	1.67	2.84	1.41
Cc1ccc(S(=O)(=O)Nc2cccc3c(=O)[nH]cnc23)cc1	> 100	> 100	> 100	> 100	> 100	> 100	> 100	> 100	> 100	> 100	> 100									
CCOP(=Nc1ccc(N(C)C)cc1)(OCC)OCC	> 100	> 100	> 100	> 100	> 100	> 100	> 100	> 100	> 100		> 100									
O=C(c1ccccc1)c1ccc2n[se]nc2c1	73.7		> 100			> 100	> 100	> 100	> 100	> 100	> 100									
